According to patent publication US8486939B2, “Pyrimidinyl and 1,3,5-triazinyl benzimidazoles and their use in cancer therapy” (Pathway Therapeutics Inc., priority 2009, dated 2013):

Key:
[1] = target: p110α/p85 (Homo sapiens, UniProt P42336); test: Inhibition of isolated enzyme (lipid kinase assay, [γ33P]ATP, TLC); type: biochemical; conditions: recombinant enzyme, 100 μM ATP, 1 hr room temperature, average of two experiments
Procedure: (§1) Compounds were evaluated for their ability to inhibit Class I PI 3-kinase enzymes p110δ/p85, p110α/p85, and p110β/p85. Reaction mixtures comprising 0.1 μg of a recombinant enzyme, 10 μg of L-α-phosphatidylinositol, and 2× Lipid Kinase Buffer (40 mM Tris-HCl, pH 7.4, 200 mM NaCl, 1 mM EDTA), which contains either DMSO only as a control or the test compound in DMSO (the final DMSO concentration is 1%), were activated by the addition of an ATP mix (5 mM MgCl2, 100 μM ATP, and 0.1 μL [γ^33P]ATP). Reactions were incubated at room temperature for 1 hr, and then stopped by the addition of 1M HCl. The lipids were then extracted using a two step procedure. Firstly, 200 μL of chloroform/methanol (1:1) was added, the biphasic reactions mixed and centrifuged briefly, and the inorganic phase was removed and discarded. Following this, 80 μL of methanol:HCl (1:1) was added and the same procedure followed. The organic phase (70 μL) was then transferred to a clean 1.6 mL tube and the reactions were dried using a Speedvac, with no heating, for […]. The reactions were spotted onto TLC plates (Merck Ltd) and developed for 1 hr in propanol-1:2 M acetic acid (13:7). The TLC plates were then dried at room temperature and quantified using a phosphorimager (StormImager, Amersham). Nine compound concentrations were used for each test compound to determine its IC50 value. Each experiment was performed twice and the average IC50 value is used herein.

[2] = target: p110δ/p85 (Homo sapiens, UniProt O00329); test: as above; type: biochemical; conditions: recombinant enzyme, 100 μM ATP, 1 hr room temperature, average of two experiments
Procedure: as §1

[3] = tested on: NZOV9; test: Cellular growth inhibition (3H-thymidine incorporation); type: cell-based; conditions: Homo sapiens, five days incubation, 3H-thymidine over the last 6 hrs, read-out: Cell IC50* NZOV9
Procedure: (§2) The compounds were evaluated against two early passage human cell lines NZB5 and NZOV9 (Marshall et al., Oncol. Res. 2004, 14, 297). The cells were grown in ITS medium (α-modified minimal essential medium supplemented insulin, transferrin, selenite, and 5% fetal bovine serum) and grown on 96-well tissue culture plates under an atmosphere of 5% O2, 5% CO2, and 90% N2. Individual wells contained 500-1,000 cells (depending on the growth rate) in a volume of 150 μL. Compounds were added at 10-fold concentration steps to a maximum of 20 μM and plates were incubated for five days, with ^3H-thymidine being added over the last 6 hrs. Cells were harvested and incorporated radioactivity measured. Duplicate samples were analyzed for each compound dose with multiple control samples. Data were fitted by a least-squares method to an exponential of the form y=y0+ae^−bx, where y is the radioactivity (corrected for background and normalized to 100% of the control), x is the […], and y0, a, and b are variables, and the IC50 value defined as the compound concentration reducing ^3H-thymidine levels by 50%.

[4] = tested on: NZB5; test: as above; type: cell-based; conditions: Homo sapiens, five days incubation, 3H-thymidine over the last 6 hrs, read-out: Cell IC50* NZB5
Procedure: as §2

p110α/p85, sequence (P42336 whole entry): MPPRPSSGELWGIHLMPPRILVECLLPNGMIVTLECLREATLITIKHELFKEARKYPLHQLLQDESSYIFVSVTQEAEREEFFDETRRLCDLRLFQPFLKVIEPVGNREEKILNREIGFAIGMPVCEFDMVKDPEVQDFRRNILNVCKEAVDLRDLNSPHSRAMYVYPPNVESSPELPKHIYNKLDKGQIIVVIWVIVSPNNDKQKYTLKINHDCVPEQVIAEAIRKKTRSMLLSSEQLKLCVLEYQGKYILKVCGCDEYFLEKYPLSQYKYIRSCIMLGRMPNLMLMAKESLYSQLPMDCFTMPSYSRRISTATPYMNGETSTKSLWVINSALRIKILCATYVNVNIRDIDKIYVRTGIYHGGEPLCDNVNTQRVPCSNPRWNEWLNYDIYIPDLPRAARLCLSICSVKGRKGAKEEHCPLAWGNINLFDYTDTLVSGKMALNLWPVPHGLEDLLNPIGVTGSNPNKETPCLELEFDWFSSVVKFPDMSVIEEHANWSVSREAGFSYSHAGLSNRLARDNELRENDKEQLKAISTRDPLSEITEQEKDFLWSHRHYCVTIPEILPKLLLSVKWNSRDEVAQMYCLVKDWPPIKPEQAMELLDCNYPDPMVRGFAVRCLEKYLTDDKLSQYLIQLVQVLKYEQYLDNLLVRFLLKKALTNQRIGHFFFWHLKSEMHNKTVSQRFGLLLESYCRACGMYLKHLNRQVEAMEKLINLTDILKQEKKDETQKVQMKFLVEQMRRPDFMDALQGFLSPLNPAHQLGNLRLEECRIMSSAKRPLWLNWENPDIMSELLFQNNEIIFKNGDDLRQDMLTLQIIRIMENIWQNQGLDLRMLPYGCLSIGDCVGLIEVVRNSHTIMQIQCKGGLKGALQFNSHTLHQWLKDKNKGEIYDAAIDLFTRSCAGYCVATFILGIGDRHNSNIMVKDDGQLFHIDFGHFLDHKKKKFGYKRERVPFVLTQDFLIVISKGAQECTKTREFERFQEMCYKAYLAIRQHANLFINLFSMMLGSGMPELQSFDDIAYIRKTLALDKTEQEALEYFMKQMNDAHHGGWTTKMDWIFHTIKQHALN
p110α/p85, sequence (P27986 whole entry partner): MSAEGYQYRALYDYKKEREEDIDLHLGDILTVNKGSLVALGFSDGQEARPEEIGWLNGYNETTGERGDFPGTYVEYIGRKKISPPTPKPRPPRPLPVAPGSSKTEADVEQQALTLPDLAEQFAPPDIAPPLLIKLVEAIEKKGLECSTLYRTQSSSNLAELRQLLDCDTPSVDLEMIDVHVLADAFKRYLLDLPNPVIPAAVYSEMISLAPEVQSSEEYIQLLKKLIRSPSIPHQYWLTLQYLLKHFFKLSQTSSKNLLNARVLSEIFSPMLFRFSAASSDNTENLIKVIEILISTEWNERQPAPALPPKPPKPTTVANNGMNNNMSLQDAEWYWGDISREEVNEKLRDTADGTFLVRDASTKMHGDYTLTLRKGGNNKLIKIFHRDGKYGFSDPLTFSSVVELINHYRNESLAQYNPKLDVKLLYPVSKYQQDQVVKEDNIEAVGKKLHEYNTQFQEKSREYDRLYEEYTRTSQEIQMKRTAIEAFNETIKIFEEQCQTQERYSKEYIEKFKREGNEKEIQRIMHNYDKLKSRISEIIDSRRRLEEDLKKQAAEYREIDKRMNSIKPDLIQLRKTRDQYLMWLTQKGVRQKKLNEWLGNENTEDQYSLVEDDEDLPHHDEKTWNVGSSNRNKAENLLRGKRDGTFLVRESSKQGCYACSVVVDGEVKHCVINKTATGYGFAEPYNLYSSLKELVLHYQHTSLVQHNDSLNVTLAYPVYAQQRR
p110δ/p85, sequence (O00329 whole entry, species assumed): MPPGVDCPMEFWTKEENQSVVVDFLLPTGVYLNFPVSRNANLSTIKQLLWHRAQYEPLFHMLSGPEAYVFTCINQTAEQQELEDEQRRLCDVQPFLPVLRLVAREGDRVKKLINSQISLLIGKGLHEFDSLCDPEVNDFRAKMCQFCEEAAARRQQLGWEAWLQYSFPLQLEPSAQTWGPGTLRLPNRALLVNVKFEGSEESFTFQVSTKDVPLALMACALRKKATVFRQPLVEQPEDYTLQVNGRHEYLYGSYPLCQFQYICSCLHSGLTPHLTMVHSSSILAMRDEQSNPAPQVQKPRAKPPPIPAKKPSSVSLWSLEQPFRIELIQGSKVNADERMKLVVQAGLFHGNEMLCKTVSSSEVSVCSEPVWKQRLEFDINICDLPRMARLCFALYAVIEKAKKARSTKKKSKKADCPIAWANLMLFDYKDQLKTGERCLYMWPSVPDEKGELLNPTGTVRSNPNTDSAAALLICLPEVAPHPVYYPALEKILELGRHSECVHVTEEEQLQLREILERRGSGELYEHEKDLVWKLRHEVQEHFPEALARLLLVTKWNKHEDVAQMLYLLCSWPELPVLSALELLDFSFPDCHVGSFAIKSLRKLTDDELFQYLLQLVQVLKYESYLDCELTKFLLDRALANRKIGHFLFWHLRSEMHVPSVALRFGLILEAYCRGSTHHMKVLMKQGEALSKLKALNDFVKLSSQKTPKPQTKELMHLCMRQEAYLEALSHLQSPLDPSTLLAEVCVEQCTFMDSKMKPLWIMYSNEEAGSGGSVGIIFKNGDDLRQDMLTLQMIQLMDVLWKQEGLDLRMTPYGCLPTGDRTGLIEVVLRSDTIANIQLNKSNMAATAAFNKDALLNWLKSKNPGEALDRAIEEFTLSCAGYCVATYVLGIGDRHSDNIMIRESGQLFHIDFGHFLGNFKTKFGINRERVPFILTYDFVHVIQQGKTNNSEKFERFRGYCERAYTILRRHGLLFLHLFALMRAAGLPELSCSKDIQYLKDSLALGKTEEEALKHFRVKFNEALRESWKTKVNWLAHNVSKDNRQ
p110δ/p85, sequence (P27986 whole entry partner, species assumed): as the sequence (P27986 whole entry partner) above

Structure (SMILES) | melting point | IC50 [1] [nM] | IC50 [2] [nM] | IC50 [3] [nM] | IC50 [4] [nM]
COc1cccc2c1nc(C(F)F)n2-c1nc(Nc2cnc(Cl)nc2)nc(N2CCOCC2)n1 [Example 41, N-(2-chloro-5-pyrimidinyl)-4-[2-(difluoromethyl)-4-methoxy-1H-benzimidazol-1-yl]-6-(4-morpholinyl)-1,3,5-triazin-2-amine] | 295 °C (dec.) | < 100 | < 100 |  | 
FC(F)c1nc2ccccc2n1-c1nc(Nc2ncccn2)nc(N2CCOCC2)n1 [Example 19, 4-[2-(difluoromethyl)-1H-benzimidazol-1-yl]-6-(4-morpholinyl)-N-(2-pyrimidinyl)-1,3,5-triazin-2-amine] | 261 to 263 °C | 100 to 1000 |  | 100 to 1000 | 100 to 1000
COc1cccc2c1nc(C(F)F)n2-c1nc(N2CCOCC2)nc(N(C)c2cncnc2)n1 [Example 45, 4-[2-(difluoromethyl)-4-methoxy-1H-benzimidazol-1-yl]-N-methyl-6-(4-morpholinyl)-N-(5-pyrimidinyl)-1,3,5-triazin-2-amine] | 214 to 217 °C | < 100 | < 100 |  | 
FC(F)c1nc2ccccc2n1-c1nc(-c2cccnc2)cc(N2CCOCC2)n1 [Example 51, 2-(difluoromethyl)-1-[4-(4-morpholinyl)-6-(3-pyridinyl)-2-pyrimidinyl]-1H-benzimidazole] | 172 to 179 °C | 100 to 1000 | 100 to 1000 |  | 
COc1cccc2c1nc(C(F)F)n2-c1nc(-c2cccnc2)nc(N2CCOCC2)n1 [Example 48, 2-(difluoromethyl)-4-methoxy-1-[4-(4-morpholinyl)-6-(3-pyridinyl)-1,3,5-triazin-2-yl]-1H-benzimidazole] | 208 to 210 °C | < 100 | < 100 |  | 
COc1cc(N)cc2c1nc(C(F)F)n2-c1nc(-c2cccnc2)cc(N2CCOCC2)n1 [Example 68, 2-(Difluoromethyl)-4-methoxy-1-[4-(4-morpholinyl)-6-(3-pyridinyl)-2-pyrimidinyl]-1H-benzimidazol-6-ylamine] |  | < 100 | < 100 |  | 
COc1cccc2c1nc(C(F)F)n2-c1nc(N2CCOCC2)nc(-n2cccn2)n1 [Example 63, 2-(Difluoromethyl)-4-methoxy-1-[4-(4-morpholinyl)-6-(1H-pyrazol-1-yl)-1,3,5-triazin-2-yl]-1H-benzimidazole] | 274 to 277 °C | < 100 | < 100 |  | 
COc1cccc2c1nc(C(F)F)n2-c1nc(-c2cccnc2)cc(N2CCOCC2)n1 [Example 52, 2-(difluoromethyl)-4-methoxy-1-[4-(4-morpholinyl)-6-(3-pyridinyl)-2-pyrimidinyl]-1H-benzimidazole] | 208 to 210 °C | < 100 | < 100 |  | 
CN(c1cncnc1)c1nc(N2CCOCC2)nc(-n2c(C(F)F)nc3ccccc32)n1 [Example 44, 4-[2-(difluoromethyl)-1H-benzimidazol-1-yl]-N-methyl-6-(4-morpholinyl)-N-(5-pyrimidinyl)-1,3,5-triazin-2-amine] | 202 to 205 °C | < 100 | < 100 |  | 
FC(F)c1nc2ccccc2n1-c1nc(Nc2ccccn2)nc(N2CCOCC2)n1 [Example 16, 4-[2-(difluoromethyl)-1H-benzimidazol-1-yl]-6-(4-morpholinyl)-N-(2-pyridinyl)-1,3,5-triazin-2-amine] | 230 to 232 °C | < 100 | < 100 | 100 to 1000 | 100 to 1000
COc1cccc2c1nc(C(F)F)n2-c1nc(Nc2cnc(N(C)CCN(C)C)nc2)nc(N2CCOCC2)n1 [Example 42, N^5-[4-[2-(difluoromethyl)-4-methoxy-1H-benzimidazol-1-yl]-6-(4-morpholinyl)-1,3,5-triazin-2-yl]-N^2-[2-(dimethylamino)ethyl]-N^2-methyl-2,5-pyrimidinediamine] | 96 to 98 °C | < 100 | < 100 |  | 
COc1cccc2c1nc(C(F)F)n2-c1nc(N2CCOCC2)c2ncn(-c3cncnc3)c2n1 [Example 60, 2-[2-(difluoromethyl)-4-methoxy-1H-benzimidazol-1-yl]-6-(4-morpholinyl)-9-(5-pyrimidinyl)-9H-purine] | 248 to 251 °C | < 100 | < 100 |  | 
COc1ncc(-c2cc(N3CCOCC3)nc(-n3c(C(F)F)nc4c(OC)cccc43)n2)cn1 [Example 57, 2-[2-(difluoromethyl)-4-methoxy-1H-benzimidazol-1-yl]-6-(4-morpholinyl)-2′-methoxy-4,5′-bipyrimidine] | 238 to 241 °C | < 100 | 100 to 1000 |  | 
FC(F)c1nc2ccccc2n1-c1nc(NCc2ccncc2)nc(N2CCOCC2)n1 [Example 15, 4-[2-(difluoromethyl)-1H-benzimidazol-1-yl]-6-(4-morpholinyl)-N-(4-pyridinylmethyl)-1,3,5-triazin-2-amine] | 188 to 190 °C | 100 to 1000 |  | 100 to 1000 | 100 to 1000
COc1cc(N)cc2c1nc(C(F)F)n2-c1nc(-c2ccn(C)n2)nc(N2CCOCC2)n1 [Example 65, 2-(Difluoromethyl)-4-methoxy-1-[4-(1-methyl-1H-pyrazol-3-yl)-6-(4-morpholinyl)-1,3,5-triazin-2-yl]-1H-benzimidazol-6-ylamine] |  | < 100 | < 100 |  | 
COc1cccc2c1nc(C(F)F)n2-c1nc(-c2ccc(N)nc2)nc(N2CCOCC2)n1 [Example 49, 5-[4-[2-(difluoromethyl)-4-methoxy-1H-benzimidazol-1-yl]-6-(4-morpholinyl)-1,3,5-triazin-2-yl]-2-pyridinamine] | 259 to 261 °C | < 100 | < 100 |  | 
FC(F)c1nc2ccccc2n1-c1nc(-c2cncnc2)cc(N2CCOCC2)n1 [Example 55, 2-[2-(difluoromethyl)-1H-benzimidazol-1-yl]-6-(4-morpholinyl)-4,5′-bipyrimidine] | 209 to 211 °C | 100 to 1000 | 100 to 1000 |  | 
COc1cccc2c1nc(C(F)F)n2-c1nc(Nc2cnc(N(C)CCCN(C)C)nc2)nc(N2CCOCC2)n1 [Example 43, N^5-[4-[2-(difluoromethyl)-4-methoxy-1H-benzimidazol-1-yl]-6-(4-morpholinyl)-1,3,5-triazin-2-yl]-N^2-[3-(dimethylamino)propyl]-N^2-methyl-2,5-pyrimidinediamine] | 97 to 99 °C | < 100 | < 100 |  | 
COc1cc(N)cc2c1nc(C(F)F)n2-c1nc(N2CCOCC2)nc(-n2cccn2)n1 [Example 64, 2-(Difluoromethyl)-4-methoxy-1-[4-(4-morpholinyl)-6-(1H-pyrazol-1-yl)-1,3,5-triazin-2-yl]-1H-benzimidazol-6-ylamine] |  | < 100 | < 100 |  | 
COc1cc(N)cc2c1nc(C(F)F)n2-c1nc(-c2cn[nH]c2)nc(N2CCOCC2)n1 [Example 66, 2-(Difluoromethyl)-4-methoxy-1-[4-(4-morpholinyl)-6-(1H-pyrazol-4-yl)-1,3,5-triazin-2-yl]-1H-benzimidazol-6-ylamine] |  | < 100 | < 100 |  | 
FC(F)c1nc2ccccc2n1-c1nc(Oc2cccnc2)nc(N2CCOCC2)n1 [Example 24, 2-(difluoromethyl)-1-[4-(4-morpholinyl)-6-(3-pyridinyloxy)-1,3,5-triazin-2-yl]-1H-benzimidazole] | 229 to 231 °C | 100 to 1000 |  | 1000 to 10000 | 1000 to 10000
COc1cccc2c1nc(C(F)F)n2-c1nc(-c2cncnc2)cc(N2CCOCC2)n1 [Example 56, 2-[2-(difluoromethyl)-4-methoxy-1H-benzimidazol-1-yl]-6-(4-morpholinyl)-4,5′-bipyrimidine] | 222 to 224 °C | < 100 | 100 to 1000 |  | 
